Source: US6770740B1, “Crosslinked DNA condesate compositions and gene delivery methods” (The Regents of the University of Michigan, priority 1999, dated 2004)
Where no end group is shown, it is not given here. The star is where a group is joined. Carboxymethyl = O=C(O)C*

Legend:
[1] = QELS particle size and zeta potential of glycopeptide DNA condensates, Example 3; type: physicochemical; conditions: 0.5 nmol of peptide or glycopeptide per μg of DNA; 50 μg/mL DNA in HBM
Experimental: Glycopeptide DNA condensates were formed at a plasmid DNA concentration of 50 μg/mL in HBM (5 mM Hepes 0.27 M mannitol pH 7.4). DNA condensates were formed by combining 750 μL of plasmid DNA (100 μg/mL) with 750 μL of triantennary-CWK18 (50 nmol/mL), Man9-CWK18, or AlkCWK18 while vortexing. The particle size of glycopeptide and peptide DNA condensates were analyzed at a DNA concentration of 50 μg/mL in HBM by quasielastic light scattering (QELS) (Cohen et al., 1990). The particle surface charge was determined at 50 μg/mL in HBM by zeta potential analysis using a Brookhaven ZetaPlus™ (Brookhaven Instruments).

HepG2 cells [2] = assay: Cell binding of 125I-DNA condensates, Example 1; type: cell-based; conditions: 5 h transfection, 10 μg 125I-DNA condensates
Experimental: Iodinated plasmid DNA was prepared with specific activity of 300 nCi per μg of DNA as described previously (Teribesi et al., 1998). Prior to forming DNA condensates, the specific activity of the ^125I DNA was adjusted to 4.5 nCi per μg of DNA by combining with unlabeled plasmid. DNA condensates were prepared using AlkCWK18, PEG-SS-CWK18 or PEG-VS-CWK18 as described above. Peptide ^125I-DNA condensates (10 μg) were used to transfer HepG2 cells for 5 h according to the procedure described above. The radioactive media was removed, cells were washed with phosphate buffered saline, harvested with lysis buffer, and the cell-associated radioactivity was quantified by gamma counting.

HepG2 cells [3] = assay: Luciferase reporter gene expression in HepG2 cells, Example 5; type: cell-based
Experimental: HepG2 cells (1.5×10^5) were plated on 6×35 mm wells and grown to 40-70% confluency in MEM supplemented with 10% FBS, penicillin and streptomycin (10,000 U/ml), sodium pyruvate (100 mM), and L-glutamine (200 mM). Transfections were performed in MEM (2 ml per 35 mm well) with 2% FBS and 80 μM chloroquine. Peptide DNA condensates (10 μg of DNA in 0.2 ml HBM) were added dropwise to triplicate wells. After a 5 h incubation at 37° C., the media was replaced with MEM supplemented with 10% FBS. After 24 h, cells were washed twice with ice-cold phosphate buffered saline (calcium and magnesium free) and then treated with 0.5 ml of ice-cold lysis buffer (25 mM Tris chloride pH 7.8, 1 mM EDTA, 8 mM magnesium chloride, 1% Triton X-100, 1 mM DTT) for 10 min. The cell lysate was scraped, transferred to 1.5 ml microcentrifuge tubes, and centrifuged for 7 min at 13,000 g at 4° C. to pellet debris.
Lysis buffer (300 μl), sodium-ATP (4 μl of a 180 mM solution, pH 7, 4° C.) and cell lysate (100 μl, 4° C.) were combined in a test tube, briefly mixed and immediately placed in the luminometer. Luciferase relative light units (RLU) were recorded on a Lumat™ LB 9501 (Berthold systems, Germany) with 10 sec integration after automatic injection of 100 μl of 0.5 mM D-luciferin (prepared fresh in lysis buffer without DTT). The RLU were converted in fmol using a standard curve generated by adding a known amount of luciferase (0.01 to 100 fmols with specific activity of 2.5 nU/fmol) to 35 mm wells containing 40-70% confluent HepG2 cells. The cells were processed as described above resulting in a standard curve with an average slope of 7.8×10^6 RLU per fmol of enzyme. Protein concentrations were measured by Bradford assay using bovine serum albumin as a standard (Bradford, 1976). The amount of luciferase recovered in each sample was normalized to milligrams of protein and reported as the mean and standard deviation obtained from triplicate transfections.
LipofectAce™ (Gibco BRL, 1:2.5 w/w dimethyl diotadecylammonium bromide and dioleoyl phosphatidylethanolamine) was used to mediate gene transfection according to the manufacturer's instructions. The ratio of DNA to LepofectAce™ was optimized for HepG2 cells. An optimal DNA/LipofectAce™ ratio was achieved by dissolving 10 μg of DNA in 100 μl serum free media (SFM) followed by adding 60 μl of LipofectAce™ prepared in 140 μl of SFM. The LipfectAce™ DNA complex was then diluted with 1.7 ml of SFM and used to transfect HepG2 cells for 5 h followed by replacing the transfecting media with media supplemented with 10% FBS. The cells were incubated for a total of 24 h, harvested and analyzed for luciferase as described above.

HepG2 cells [4] = assay: Nuclear targeted β-galactosidase (X-gal) count of transfected HepG2 cells; type: cell-based; conditions: HepG2, 48 h, NTβGal plasmid
Experimental: The number of cells transfected in vitro was examined using a plasmid encoding nuclear targeted β-galactosidase followed by X-gal (5-bromo-4-chloro-3-indolyl-β-galactopyranoside) staining. HepG2 and COS 7 cells were transfected for 5 h as described above with either AlkCWK18 DNA, peptide II DNA condensates, or plasmid DNA and then grown in fresh media for an additional 43 h. After removing media, cells were fixed for 5 min in phosphate-buffered saline (PBS, pH 7.3) containing 1.25 vol/vol % glutaraldehyde and then stained by incubation with 0.05 wt/v % X-gal, 1 mM magnesium chloride, 10 mM potassium ferricyanide, and 10 mM potassium ferrocyanide in PBS. After 4 h at 37° C., the X-gal solution was removed and the nuclear stained blue cells were counted with a light microscope under ten power magnification by averaging the number of transfectants from nine fields. Values were analyzed for significance by one-way analysis of variance.

Substance | mean particle size of DNA condensates [1] [nm] | cell associated 125I-DNA, percent of dose (HepG2 cells [2]) | chloroquine enhancement of gene expression relative to that of AlkCWK18 DNA condensates (HepG2 cells [3]) | increase in gene expression over polylysine1007 or LipofectAce (HepG2 cells [3]; HepG2) [fold] | increase in luciferase gene expression relative to AlkCWK18 DNA condensates (HepG2 cells [3]; HepG2, 80 μM chloroquine, 24 h) [fold] | more cells transduced (nuclear stained) vs. AlkCWK18 (HepG2 cells [4])
Alk-S-Cys-Trp-Lys18 (C(Carboxymethyl)WKKKKKKKKKKKKKKKKKK) [AlkCWK18] | 81 | Approximately 14% |  |  |  | 
Cys-Trp-Lys17-Cys (CWKKKKKKKKKKKKKKKKKC) [Peptide II] |  |  | approximately 5 fold | 5 | 60 | approximately 9 fold
